From ChEMBL document CHEMBL1201862, “PubChem BioAssay data set” (2004)
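96-well plates; 48 h exposure; 5 concentrations. Endpoints by linear interpolation between flanking doses. Not reached: highest tested concentration assigned. At the GI50, growth is halved.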 Active and inactive are the calls of the source. Cut-off read from the data, not from the text of the source: active = GI50 up to about 1.1 µM and inactive = higher.

How the values were obtained:
Assay in all cases: DTP human tumour cell line panel, 48 h
[1] = tested on: IGROV-1
[2] = tested on: HT-29
[3] = tested on: MCF7
[4] = tested on: BT-549
[5] = tested on: SK-MEL-5
[6] = tested on: HCC 2998
[7] = tested on: UACC-257
[8] = tested on: Malme-3M
[9] = tested on: MDA-MB-435
[10] = tested on: U-251
[11] = tested on: Hs-578T
[12] = tested on: SK-MEL-2
[13] = tested on: DU-145
[14] = tested on: SF-539
[15] = tested on: 786-0
[16] = tested on: CCRF-CEM
[17] = tested on: MDA-N
[18] = tested on: OVCAR-5
[19] = tested on: SF-295
[20] = tested on: OVCAR-3

Measured: GI50

Cn1c(=O)[nH]c2nccnc2c1=O
inactive: [1] > 10 µM | [2] > 10 µM | [3] > 10 µM | [4] > 10 µM | [5] > 10 µM | [6] > 10 µM | [7] > 10 µM | [8] > 10 µM | [9] > 10 µM | [10] > 10 µM | [11] > 10 µM | [12] > 10 µM | [13] > 10 µM | [14] > 10 µM | [15] > 10 µM | [16] > 10 µM | [17] > 10 µM | [18] > 10 µM | [19] > 10 µM | [20] > 10 µM

CCN(CC)CC1CCCCN1CC(=O)N1c2ccccc2NC(=O)CC1C (stereo not given)
inactive: [1] > 100 µM | [2] > 100 µM | [3] > 100 µM | [4] > 100 µM | [5] > 100 µM | [6] > 100 µM | [7] > 100 µM | [8] > 100 µM | [9] > 100 µM | [10] > 100 µM | [11] > 100 µM | [12] > 100 µM | [13] > 100 µM | [14] > 100 µM | [15] > 100 µM | [16] > 100 µM | [17] > 100 µM | [18] > 100 µM | [19] > 100 µM | [20] > 100 µM

Nc1cc(-c2ccc(Cl)cc2)nn1-c1nc2ccccc2nc1-c1ccccc1
inactive: [1] 38.3 µM | [2] 11.9 µM | [3] > 100 µM | [4] > 100 µM | [5] 92 µM | [6] > 100 µM | [7] > 100 µM | [8] 50.9 µM | [9] > 100 µM | [10] 48.1 µM | [11] 70.5 µM | [12] 59.7 µM | [13] > 100 µM | [14] 95.9 µM | [15] 39 µM | [16] > 100 µM | [17] > 100 µM | [18] > 100 µM | [19] > 100 µM | [20] 65 µM

CCOC(=O)/C=C(/C(=O)OCC)n1cnc2c(=O)[nH]c(NC(C)=O)nc21
inactive: [1] > 100 µM | [2] > 100 µM | [3] > 100 µM | [4] > 100 µM | [5] > 100 µM | [6] > 100 µM | [7] > 100 µM | [8] > 100 µM | [9] > 100 µM | [10] > 100 µM | [11] > 100 µM | [12] > 100 µM | [13] > 100 µM | [14] > 100 µM | [15] > 100 µM | [16] > 100 µM | [17] > 100 µM | [18] > 100 µM | [19] > 100 µM | [20] > 100 µM

CC(=O)O[C@H]1C[C@H]2[C@@H]([C@H](OC(C)=O)C[C@@H]3CC4(CC[C@@]32C)OOC2(CCCCC2)OO4)[C@@H]2CC[C@H]([C@H](C)CCC(=O)O)[C@@]12C
inactive: [1] 1.87 µM | [2] 11.5 µM | [3] 4.65 µM | [4] 4.24 µM | [5] 10.6 µM | [6] 12 µM | [7] 11.4 µM | [8] 16.4 µM | [9] 5.75 µM | [10] 4.52 µM | [11] 2.42 µM | [12] 13.1 µM | [13] 10.4 µM | [14] 7.85 µM | [15] 11.3 µM | [16] 2.33 µM | [17] 8.75 µM | [18] 10.7 µM | [19] 5.93 µM | [20] 13.9 µM

COC(=O)CC1(O)C=CC(=O)C=C1 [JACARANONE]
inactive: [1] 2.02 µM | [2] 6.24 µM | [3] 2.97 µM | [4] 5.02 µM | [5] 3.29 µM | [6] 15.3 µM | [7] 2.65 µM | [8] 2.81 µM | [9] 6.47 µM | [10] 3.52 µM | [11] 8.55 µM | [12] 4.63 µM | [13] 5.06 µM | [14] 3.53 µM | [15] 2.88 µM | [16] 1.99 µM | [17] 6.35 µM | [18] 8.99 µM | [19] 5.13 µM | [20] 3.91 µM

NC(Cc1ccccc1)C(=O)OCN1C(=O)C2C3C=CC(C2C1=O)C1C(=O)N(COC(=O)C(N)Cc2ccccc2)C(=O)C31 (stereo not given)
inactive: [1] > 100 µM | [2] 18.4 µM | [3] 17.5 µM | [4] > 100 µM | [5] 49.8 µM | [6] > 100 µM | [7] 75.2 µM | [8] 17.2 µM | [9] > 100 µM | [10] > 100 µM | [11] > 100 µM | [12] 22.6 µM | [13] > 100 µM | [14] > 100 µM | [15] 35.7 µM | [16] 21.7 µM | [17] > 100 µM | [18] > 100 µM | [19] > 100 µM | [20] > 100 µM

COc1cc(OC)c(OC)cc1/C=C/c1ccccn1
inactive: [1] > 10 µM | [2] > 10 µM | [3] > 10 µM | [4] > 10 µM | [5] > 10 µM | [6] > 10 µM | [7] > 10 µM | [8] > 10 µM | [9] > 10 µM | [10] > 10 µM | [11] > 10 µM | [12] > 10 µM | [13] > 10 µM | [14] > 10 µM | [15] > 10 µM | [16] > 10 µM | [17] > 10 µM | [18] > 10 µM | [19] > 10 µM | [20] > 10 µM

COc1ccc(OC2OC(CO)C(O)C(O)C2O)cc1 (stereo not given)
inactive: [1] > 100 µM | [2] > 100 µM | [3] > 100 µM | [4] > 100 µM | [5] > 100 µM | [6] > 100 µM | [7] > 100 µM | [8] > 100 µM | [9] > 100 µM | [10] > 100 µM | [11] > 100 µM | [12] > 100 µM | [13] > 100 µM | [14] > 100 µM | [15] > 100 µM | [16] > 100 µM | [17] > 100 µM | [18] > 100 µM | [19] > 100 µM | [20] > 100 µM

c1ccc(C2=NC3OC2c2ccccc23)cc1 (stereo not given)
inactive: [1] > 10 µM | [2] > 10 µM | [3] 3.15 µM | [4] > 10 µM | [5] > 10 µM | [6] > 10 µM | [7] > 10 µM | [8] > 10 µM | [9] > 10 µM | [10] > 10 µM | [11] > 10 µM | [12] > 10 µM | [13] > 10 µM | [14] > 10 µM | [15] > 10 µM | [16] > 10 µM | [17] > 10 µM | [18] > 10 µM | [19] > 10 µM | [20] > 10 µM

C=CCOC(=O)C1=C(C)N=C2N[C@H](CCCCCCCCC)C[C@@H]3CCC1N23 (stereo not given in full)
inactive: [1] 21.6 µM | [2] 27.9 µM | [3] 18 µM | [4] 19.9 µM | [5] 17.7 µM | [6] 21.9 µM | [7] 18.3 µM | [8] 17.3 µM | [9] 20.3 µM | [10] 20.9 µM | [11] 21.5 µM | [12] 19.8 µM | [13] 27.4 µM | [14] 19 µM | [15] 20 µM | [16] 36.4 µM | [17] 18.4 µM | [18] 22.7 µM | [19] 34.9 µM | [20] 19.4 µM

C/C(=N\N=C(\N)OB(F)F)c1ccccn1
inactive: [1] 64.3 µM | [2] 47.3 µM | [3] 79.4 µM | [4] > 100 µM | [5] > 100 µM | [6] > 100 µM | [7] > 100 µM | [8] > 100 µM | [9] > 100 µM | [10] 35.7 µM | [11] 28.6 µM | [12] > 100 µM | [13] > 100 µM | [14] > 100 µM | [15] 40.4 µM | [16] 43.4 µM | [17] 71.9 µM | [18] > 100 µM | [19] 66.8 µM | [20] 92 µM

Cn1nnnc1SC(F)(F)c1nc2ccccc2o1
inactive: [1] > 100 µM | [2] > 100 µM | [3] > 100 µM | [4] > 100 µM | [5] > 100 µM | [6] > 100 µM | [7] > 100 µM | [8] > 100 µM | [9] > 100 µM | [10] > 100 µM | [11] > 100 µM | [12] > 100 µM | [13] > 100 µM | [14] > 100 µM | [15] > 100 µM | [16] 25.1 µM | [17] > 100 µM | [18] > 100 µM | [19] > 100 µM | [20] > 100 µM

O=C(/C=C/c1ccc(OCc2ccccc2)cc1)NCc1ccc(C(=O)NCCc2c[nH]c3ccccc23)cc1
inactive: [1] 15.9 µM | [2] 4.33 µM | [3] 17.1 µM | [4] 66.1 µM | [5] 17.8 µM | [6] 43.2 µM | [7] 33 µM | [8] 12.9 µM | [9] > 57.3 µM | [10] 4.37 µM | [11] 6.35 µM | [12] 31 µM | [13] 32.8 µM | [14] 2.67 µM | [15] 3.61 µM | [16] 70.6 µM | [17] > 100 µM | [18] 18.2 µM | [19] 3.41 µM | [20] 29 µM
